Measurements as given in patent US20250223300A1, “MACROCYCLIC COMPOUND AND PHARMACEUTICAL COMPOSITION AND USE THEREOF” (BETTA PHARMACEUTICALS CO., LTD, priority 2022, published 2025).

Assays:
Format in all cases: cell-based
Ba/F3 (EGFR Del19/C797S) = Ba/F3 (EGFR Del19/C797S) (Homo sapiens, UniProt P00533, C797S, cells depend on it, form not given); assay: Cell proliferation inhibitory activity assay, Ba/F3 EGFR Del19/C797S; settings: cell proliferation inhibition, 72 hours, luminescence; read-out: Ba/F3 cells overexpressing different EGFR mutations IC50 (nM) Del19/C797S
Sequence of Ba/F3 (EGFR Del19/C797S) (P00533 with tags, fused parts or gaps DEL746-750/C797S, form open): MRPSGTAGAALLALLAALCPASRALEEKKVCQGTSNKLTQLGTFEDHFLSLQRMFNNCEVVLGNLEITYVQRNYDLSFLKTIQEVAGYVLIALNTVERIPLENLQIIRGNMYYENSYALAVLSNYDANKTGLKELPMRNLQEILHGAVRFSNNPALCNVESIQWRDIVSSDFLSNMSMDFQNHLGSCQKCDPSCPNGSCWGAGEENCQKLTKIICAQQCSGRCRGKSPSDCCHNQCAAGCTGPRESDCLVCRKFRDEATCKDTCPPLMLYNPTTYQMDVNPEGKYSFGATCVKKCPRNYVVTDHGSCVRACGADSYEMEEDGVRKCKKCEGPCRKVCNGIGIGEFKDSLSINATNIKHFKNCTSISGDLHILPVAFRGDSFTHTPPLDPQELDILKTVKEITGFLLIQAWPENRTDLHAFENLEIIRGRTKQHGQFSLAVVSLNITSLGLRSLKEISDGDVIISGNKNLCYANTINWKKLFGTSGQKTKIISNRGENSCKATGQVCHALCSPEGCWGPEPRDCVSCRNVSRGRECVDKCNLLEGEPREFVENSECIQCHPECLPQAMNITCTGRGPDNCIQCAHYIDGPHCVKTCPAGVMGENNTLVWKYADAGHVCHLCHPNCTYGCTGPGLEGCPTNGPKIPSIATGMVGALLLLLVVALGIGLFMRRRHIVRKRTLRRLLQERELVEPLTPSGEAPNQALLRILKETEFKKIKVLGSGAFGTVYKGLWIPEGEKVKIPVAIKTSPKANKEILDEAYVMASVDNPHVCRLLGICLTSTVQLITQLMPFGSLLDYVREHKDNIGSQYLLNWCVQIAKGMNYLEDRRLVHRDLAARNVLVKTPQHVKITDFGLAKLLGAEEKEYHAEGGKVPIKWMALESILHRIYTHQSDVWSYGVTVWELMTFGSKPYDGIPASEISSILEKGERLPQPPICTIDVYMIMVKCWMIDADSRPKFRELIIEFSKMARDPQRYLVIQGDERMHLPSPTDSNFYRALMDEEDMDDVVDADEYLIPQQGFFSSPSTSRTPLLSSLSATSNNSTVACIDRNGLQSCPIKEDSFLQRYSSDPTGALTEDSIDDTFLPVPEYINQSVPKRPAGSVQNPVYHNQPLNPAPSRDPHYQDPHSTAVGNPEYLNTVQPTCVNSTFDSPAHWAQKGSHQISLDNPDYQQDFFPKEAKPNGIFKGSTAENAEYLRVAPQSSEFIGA
Method: (§1) Suspension cells Ba/F3 (EGFR. Dell9/T790M/C797S), Ba/F3 (EGFR L858R/T790M/C797S), Ba/F3 (EGFR Del19/C797S), and Ba/F3 (EGFR L858R/C797S) overexpressing different EGFR mutations were cultured in PRMI 1640 containing 10% FBS and 1% PS, and adherent cells A431 carrying EGFR WT were cultured in DMEM containing 10% FBS and 1% PS. The experimental steps for compound activity detection are as follows: • (1) Take adherent cells in the logarithmic growth phase, digest them with trypsin count them, and then inoculate them into a 96-well plate at a certain density. Incubate them overnight at 37° C. and 5% CO2 to allow them to adhere.
(§2) Y=minimum+([…])/(1+10^((Log IC50−X)*slope)); • X: logarithm of compound concentration; Y: cell survival inhibition rate.

[1] = target: Ba/F3 cells overexpressing EGFR Del19/T790M/C797S (Homo sapiens, UniProt P00533, T790M/C797S, cells depend on it, form not given); assay: Cell proliferation inhibitory activity assay, Ba/F3 EGFR Del19/T790M/C797S; settings: cell proliferation inhibition, 72 hours, luminescence; read-out: Ba/F3 cells overexpressing different EGFR mutations IC50 (nM) Del19/T790M/C797S
Sequence of Ba/F3 cells overexpressing EGFR Del19/T790M/C797S (P00533 with tags, fused parts or gaps DEL746-750/T790M/C797S, form open): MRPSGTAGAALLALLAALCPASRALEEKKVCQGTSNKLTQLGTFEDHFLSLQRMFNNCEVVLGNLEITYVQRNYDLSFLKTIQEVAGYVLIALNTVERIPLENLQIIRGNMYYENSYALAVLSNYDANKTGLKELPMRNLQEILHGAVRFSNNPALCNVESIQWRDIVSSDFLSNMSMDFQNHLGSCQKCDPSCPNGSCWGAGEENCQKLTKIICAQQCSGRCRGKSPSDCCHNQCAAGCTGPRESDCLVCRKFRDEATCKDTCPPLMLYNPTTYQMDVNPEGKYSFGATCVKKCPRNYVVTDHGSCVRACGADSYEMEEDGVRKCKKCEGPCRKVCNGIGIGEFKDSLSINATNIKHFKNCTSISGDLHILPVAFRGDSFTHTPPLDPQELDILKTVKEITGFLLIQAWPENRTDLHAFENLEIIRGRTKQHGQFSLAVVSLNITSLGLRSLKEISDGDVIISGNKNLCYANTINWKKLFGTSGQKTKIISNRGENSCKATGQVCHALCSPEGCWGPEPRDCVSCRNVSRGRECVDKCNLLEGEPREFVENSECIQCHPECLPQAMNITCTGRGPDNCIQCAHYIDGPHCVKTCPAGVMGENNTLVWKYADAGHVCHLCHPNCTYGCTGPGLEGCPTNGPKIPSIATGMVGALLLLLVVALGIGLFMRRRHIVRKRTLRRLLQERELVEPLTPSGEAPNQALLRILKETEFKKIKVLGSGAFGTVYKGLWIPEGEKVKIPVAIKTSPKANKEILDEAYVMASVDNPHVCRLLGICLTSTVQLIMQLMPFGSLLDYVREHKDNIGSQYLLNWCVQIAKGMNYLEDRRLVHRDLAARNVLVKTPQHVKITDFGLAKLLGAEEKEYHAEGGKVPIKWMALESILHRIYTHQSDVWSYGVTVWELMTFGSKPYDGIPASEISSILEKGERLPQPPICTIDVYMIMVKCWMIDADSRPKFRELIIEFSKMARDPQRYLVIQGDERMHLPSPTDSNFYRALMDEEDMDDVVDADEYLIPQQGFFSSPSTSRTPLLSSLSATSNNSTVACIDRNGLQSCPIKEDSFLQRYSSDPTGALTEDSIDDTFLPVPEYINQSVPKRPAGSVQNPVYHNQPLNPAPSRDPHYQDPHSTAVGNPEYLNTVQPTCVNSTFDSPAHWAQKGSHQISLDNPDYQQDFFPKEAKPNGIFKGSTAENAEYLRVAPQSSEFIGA
Method: as §1, §2

[2] = tested on: A431 cell carrying EGFR WT; assay: Cell proliferation inhibitory activity assay, A431; settings: Homo sapiens, A-431; cell proliferation inhibition, 72 hours, luminescence
Method: as §1, §2

Ba/F3 (EGFR L858R/C797S) = Ba/F3 (EGFR L858R/C797S) (Homo sapiens, UniProt P00533, C797S/L858R, cells depend on it); assay: Cell proliferation inhibitory activity assay, Ba/F3 EGFR L858R/C797S; settings: cell proliferation inhibition, 72 hours, luminescence; read-out: Ba/F3 cells overexpressing different EGFR mutations IC50 (nM) L858R/C797S
Sequence of Ba/F3 (EGFR L858R/C797S) (P00533 whole entry C797S/L858R): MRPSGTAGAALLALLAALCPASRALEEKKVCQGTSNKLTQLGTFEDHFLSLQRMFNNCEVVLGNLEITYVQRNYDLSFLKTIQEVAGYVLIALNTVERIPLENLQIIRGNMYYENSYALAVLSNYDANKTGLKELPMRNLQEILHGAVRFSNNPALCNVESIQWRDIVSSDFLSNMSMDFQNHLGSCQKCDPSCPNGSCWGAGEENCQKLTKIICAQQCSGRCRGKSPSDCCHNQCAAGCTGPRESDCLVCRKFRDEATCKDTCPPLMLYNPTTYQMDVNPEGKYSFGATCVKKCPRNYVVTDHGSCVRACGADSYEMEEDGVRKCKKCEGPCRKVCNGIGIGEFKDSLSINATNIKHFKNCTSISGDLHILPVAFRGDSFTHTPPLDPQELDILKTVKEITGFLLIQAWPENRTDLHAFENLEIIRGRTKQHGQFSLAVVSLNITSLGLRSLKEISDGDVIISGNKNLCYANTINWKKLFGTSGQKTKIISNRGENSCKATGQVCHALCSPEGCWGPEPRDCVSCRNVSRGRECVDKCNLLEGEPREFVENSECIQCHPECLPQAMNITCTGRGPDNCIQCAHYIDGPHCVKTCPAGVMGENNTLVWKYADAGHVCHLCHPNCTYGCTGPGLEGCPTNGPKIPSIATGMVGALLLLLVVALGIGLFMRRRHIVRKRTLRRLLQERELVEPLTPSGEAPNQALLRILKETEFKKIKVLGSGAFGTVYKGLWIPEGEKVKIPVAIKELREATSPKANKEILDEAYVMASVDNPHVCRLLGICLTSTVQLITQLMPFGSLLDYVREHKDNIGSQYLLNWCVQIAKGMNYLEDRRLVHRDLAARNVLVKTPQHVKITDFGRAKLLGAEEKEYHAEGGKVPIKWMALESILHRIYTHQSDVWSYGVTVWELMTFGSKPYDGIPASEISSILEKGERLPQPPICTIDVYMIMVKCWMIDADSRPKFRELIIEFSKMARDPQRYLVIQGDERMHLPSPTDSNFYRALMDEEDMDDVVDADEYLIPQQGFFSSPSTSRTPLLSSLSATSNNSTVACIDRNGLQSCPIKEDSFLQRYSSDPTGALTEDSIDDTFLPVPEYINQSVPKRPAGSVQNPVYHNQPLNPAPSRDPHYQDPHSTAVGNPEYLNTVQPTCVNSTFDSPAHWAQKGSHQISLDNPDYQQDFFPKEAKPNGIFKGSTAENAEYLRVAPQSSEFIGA
Method: as §1, §2

[3] = target: Ba/F3 (EGFR L858R/T790M/C797S) (Homo sapiens, UniProt P00533, T790M/C797S/L858R, cells depend on it); assay: Cell proliferation inhibitory activity assay, Ba/F3 EGFR L858R/T790M/C797S; settings: cell proliferation inhibition, 72 hours, luminescence; read-out: Ba/F3 cells overexpressing different EGFR mutations IC50 (nM) L858R/T790M/C797S
Sequence of Ba/F3 (EGFR L858R/T790M/C797S) (P00533 whole entry T790M/C797S/L858R): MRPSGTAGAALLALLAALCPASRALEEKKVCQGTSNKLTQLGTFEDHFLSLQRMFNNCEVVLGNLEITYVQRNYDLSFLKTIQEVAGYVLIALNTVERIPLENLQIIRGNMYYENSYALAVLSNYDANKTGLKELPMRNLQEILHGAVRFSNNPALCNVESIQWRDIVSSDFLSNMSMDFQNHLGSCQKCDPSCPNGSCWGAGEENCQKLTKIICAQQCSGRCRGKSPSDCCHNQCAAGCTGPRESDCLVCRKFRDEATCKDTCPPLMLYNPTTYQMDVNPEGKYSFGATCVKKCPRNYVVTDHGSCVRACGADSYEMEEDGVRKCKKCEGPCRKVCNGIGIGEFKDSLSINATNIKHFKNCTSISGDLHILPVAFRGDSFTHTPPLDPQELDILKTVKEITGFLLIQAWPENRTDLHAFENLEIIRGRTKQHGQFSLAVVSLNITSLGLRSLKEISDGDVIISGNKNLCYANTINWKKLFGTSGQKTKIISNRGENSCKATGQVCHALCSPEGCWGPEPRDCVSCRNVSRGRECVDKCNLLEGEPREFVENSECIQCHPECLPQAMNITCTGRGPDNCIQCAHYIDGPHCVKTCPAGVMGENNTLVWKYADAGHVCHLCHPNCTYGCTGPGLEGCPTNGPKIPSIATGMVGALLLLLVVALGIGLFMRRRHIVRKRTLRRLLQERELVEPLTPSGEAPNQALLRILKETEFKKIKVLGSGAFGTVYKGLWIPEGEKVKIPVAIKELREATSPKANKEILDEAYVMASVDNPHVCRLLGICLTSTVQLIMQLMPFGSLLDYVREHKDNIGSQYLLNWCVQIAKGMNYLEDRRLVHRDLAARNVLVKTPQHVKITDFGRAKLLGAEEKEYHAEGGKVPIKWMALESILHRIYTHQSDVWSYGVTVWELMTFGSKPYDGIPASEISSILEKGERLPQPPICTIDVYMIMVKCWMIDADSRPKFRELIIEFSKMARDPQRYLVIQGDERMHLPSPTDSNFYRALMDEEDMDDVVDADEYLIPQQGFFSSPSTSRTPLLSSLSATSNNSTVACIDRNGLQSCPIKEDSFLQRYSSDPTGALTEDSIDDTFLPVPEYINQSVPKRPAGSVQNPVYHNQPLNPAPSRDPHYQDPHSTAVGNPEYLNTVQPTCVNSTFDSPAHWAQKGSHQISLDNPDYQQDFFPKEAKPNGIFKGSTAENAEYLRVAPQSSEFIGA
Method: as §1, §2

Structure (SMILES) | GI50 (Ba/F3 (EGFR Del19/C797S)) [nM] | GI50 [1] [nM] | IC50 [2] [nM] | GI50 (Ba/F3 (EGFR L858R/C797S)) [nM] | GI50 [3] [nM]
Cc1cc2cc(n1)-c1cnccc1OCCC[C@@H](C)Cn1c(nc3ccc(N4CCC5(CC4)CCN(C4CC4)CC5)cc31)NC2=O [Example 45, (R)-5^6-(9-cyclopropyl-3,9-diazaspiro[5.5]undecan-3-yl)-2^6,7-dimethyl-5^1H-11-oxa-4-aza-5(2,1)-benzo [d]imidazola-1(3,4),2(2,4)-dipyridinacyclo-undecaphan-3-one] | 0.27 | 1.6 | 701 | 2.1 | 3.7
COC(C)(C)CC(C)N1CCC2(CCN(c3ccc4nc5n(c4c3)CCCCCOc3ccncc3-c3cc(cc(C)n3)C(=O)N5)CC2)CC1 (centres unmarked) [Example 90, 5^6-(9-(4-methoxy-4-methylpentan-2-yl)-3,9-diazaspiro[5.5]undecan-3-yl)-2^6-methyl-5^1H-11-oxa-4-aza-5(2,1)-benzo[d] imidazola-1(3,4),2(2,4)-dipyridinacyclo-undecaphan-3-one] | 4 | 4.2 | 733 | 31 | 12
COCCCN1CCC2(CC1)CCN(c1ccc3nc4n(c3c1)C[C@H](C)CCCOc1cc(F)ncc1-c1cc(cc(C)n1)C(=O)N4)CC2 [Example 17, 1^6-fluoro-5^6-(9-(3-methoxypropyl)-3,9-diazaspiro[5.5]undecan-3-yl)-2^6-methyl-5^1H-11-oxa-4-aza-5(2,1)-benzo[d]imidazola-1(3,4),2(2,4)-dipyridinacycloundecaphan-3-one] | 5 | 1.2 | 1470 | 18 | 4.7
COCCN1CCC2(CC1)CCN(c1ccc3nc4n(c3c1)CCCCCOc1ccncc1-c1cc(cc(C)n1)C(=O)N4)CC2 [Example 75, 5^6-(9-(2-methoxy-ethyl)-3,9-diazaspiro[5.5]undecan-3-yl)-2^6-methyl-5^1H-11-oxa-4-aza-5(2,1)-benzo[d] imidazola-1(3,4), 2(2,4)-dipyridinacyclo-undecaphan-3-one] | 0.11 | 0.07 | 646 | 0.07 | 0.08
Cc1cc2cc(n1)-c1cnc(F)cc1OCCC[C@@H](C)Cn1c(nc3ccc(N4CCC5(CCNCC5)CC4)cc31)NC2=O [Example 9, (R)-1^6-fluoro-2^6,7-dimethyl-5^6-(3,9-driazaspiro[3.5]undecan-3-yl)-5^1-11-oxa-4-aza-5(2,1)-benzo[d]imidazola-1(3,4),2(2,4)-dipyridinacycloundecaphan-3-one] | 0.77 | 0.73 | 425 | 3.6 | 1.1
Cc1cc2cc(n1)-c1cnccc1OCCCC(C)(C)Cn1c(nc3ccc(N4CCC5(CCN(C)CC5)CC4)cc31)NC2=O [Example 7, 2^6,9,9-trimethyl-5^6-(9-methyl-3,9-diazaspiro[5.5]undecan-3-yl)-5^1H-11-oxa-4-aza-5(2,1)-benzo[d]imidazola-1(3,4),2(2,4)-dipyridinacycloundecaphan-3-one] | 4.5 | 1.6 | 226 | 11 | 3.7
Cc1cc2cc(n1)-c1cnccc1OCCCCCn1c(nc3cc(F)c(N4CCC5(CC4)CCN(C4COC4)CC5)cc31)NC2=O [Example 63, 5^5-fluoro-2^6-methyl-5^6-(9-(oxetan-3-yl)-3,9-diazaspiro[5.5]undecan-3-yl)-5^1H-11-oxa-4-aza-5(2,1)-benzo [d]imidazola-1(3,4),2(2,4)-dipyridinacyclo-undecaphan-3-one] | 0.67 | 0.5 | 472 | 2 | 1.5
Cc1cc2cc(n1)-c1cnccc1OCCC[C@@H](C)Cn1c(nc3cc(C)c(N4CCC5(CCN(C)CC5)CC4)cc31)NC2=O [Example 11, (R)-2^6,5^3,7-trimethyl-5^6-(9-methyl-3,9-diazaspiro[5.5]undecan-3-yl)-5^1H-11-oxa-4-aza-5(2.I)-benzo[d]imidazola-1(3,4),2(2,4)-dipyridinacycloundecaphan-3-one] | 0.15 | 2.2 | 493 | 1 | 3.4
Cc1cc2cc(n1)-c1cnccc1OCCCCCn1c(nc3cc(F)c(N4CCC5(CCN(C)CC5)CC4)cc31)NC2=O [Example 14, 5^5-fluoro-2^6-methyl-5^6-(9-methyl-3,9-diazaspiro[5.5]undecan-3-yl)-5^1H-11-oxa-4-aza-5(2,1)-benzo[d]imidazola-1(3,4),2(2,4)-dipyridinacycloundecaphan-3-one] | 0.18 | 0.37 | 805 | 1.8 | 1.5
Cc1cc2cc(n1)-c1cnccc1OCCCCCn1c(nc3ccc(N4CCC5(CCN(CCC(N)=O)CC5)CC4)cc31)NC2=O [Example 18, 3-(9-(2^6-methyl-3-oxo-5^1H-11-oxa-4-aza-5(2,1)-benzo[d]imidazola-1(3,4),2(2,4)-dipyridinacycloundecaphane-5^6-yl)-3,9-diazaspiro[5.5]undecan-3-yl)propanamide] | 0.5 | 0.77 | 631 | 3.9 | 2.1

Next, values leading:

GI50 (Ba/F3 (EGFR Del19/C797S)) [nM] | GI50 [1] [nM] | IC50 [2] [nM] | GI50 (Ba/F3 (EGFR L858R/C797S)) [nM] | GI50 [3] [nM] | Structure (SMILES)
0.57 | 0.95 | 772 | 3.8 | 3 | Cc1cc2cc(n1)-c1cnccc1OCCCCCn1c(nc3cc(F)c(N4CCC5(CCN(CC6COC6)CC5)CC4)cc31)NC2=O [Example 62, 5^5-fluoro-2^6-methyl-5^6-(9-(oxetan-3-ylmethyl)-3,9-diazaspiro [5.5]undecan-3-yl)-5^1H-11-oxa-4-aza-5(2,1)-benzo[d] imidazola-1(3,4),2(2,4)-dipyridinacyclo-undecaphan-3-one]
5.8 | 5.4 | 1410 | 21 | 11 | Cc1cc2cc(n1)-c1cnccc1OCCCCCn1c(nc3ccc(N4CCC5(CCN(CCN(C)C)CC5)CC4)cc31)NC2=O [Example 87, 5^6-(9-(2-(dimethyl-amino)ethyl)-3,9-diazaspiro [5.5]undecan-3-yl)-2^6-methyl-5^1H-11-oxa-4-aza-5(2,1)-benzo [d]imidazola-1(3,4),2(2,4)-dipyridinacyclo-undecaphan-3-one]
0.27 | 1.3 | 294 | 2 | 2 | Cc1cc2cc(n1)-c1cnccc1OCCC[C@@H](C)Cn1c(nc3ccc(N4CCC5(CC4)CCN(C4COC4C)CC5)cc31)NC2=O (stereo partly drawn) [Example 83, (7R)-2^6,7-dimethyl-5^6-(9-(2-methyloxetan-3-yl)-3,9-diazaspiro [5.5]undecan-3-yl)-5^1H-11-oxa-4-aza-5(2,1)-benzo[d] imidazola-1(3,4),2(2,4)-dipyridinacyclo-undecaphan-3-one]
0.29 | 0.91 | 1080 | 3 | 1.8 | Cc1cc2cc(n1)-c1cnccc1OCCCCCn1c(nc3cc(F)c(N4CCC5(CCN(CCF)CC5)CC4)cc31)NC2=O [Example 61, 5^5-fluoro-5^6-(9-(2-fluoroethyl)-3,9-diazaspiro [5.5]undecan-3-yl)-2^6-methyl-5^1H-11-oxa-4-aza-5(2,1)-benzo [d]imidazola-1(3,4),2(2,4)-dipyridinacyclo-undecaphan-3-one]
0.69 | 1.1 | 1250 | 4.6 | 2.3 | Cc1cc2cc(n1)-c1cnccc1OCCCCCn1c(nc3cc(F)c(N4CCC5(CC4)CCN(C4CC4)CC5)cc31)NC2=O [Example 65, 5^6-(9-cyclopropyl-3,9-diazasptro [5.5]undecan-3-yl)-5^5-fluoro-2^6-methyl-5^1H-11-oxa-4-aza-5(2,1)-benzo [d]imidazola-1(3,4),2(2,4)-dipyridinacyclo-undecaphan-3-one]
0.71 | 1.8 | 1210 | 6.5 | 4.6 | Cc1cc2cc(n1)-c1cnccc1OCCCCCn1c(nc3ccc(N4CCC5(CC4)CCN(C4CC4)CC5)cc31)NC2=O [Example 89, 5^6-(9-cyclopropyl-3,9-diazaspiro [5.5]undecan-3-yl)-2^6-methyl-5^1H-11-oxa-4-aza-5(2,1)-benzo[d] imidazola-1(3,4),2(2,4)-dipyridinacyclo-undecaphan-3-one]
